± gives the standard deviation of the averaged measurements.
Assays:
Experiment in all cases: relative viability vs DMSO control (72 h) (fraction); higher = more viable cells
SYO-1 = test system: SYO-1
Outline: (§1)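 Sarcoma cell lines were plated in 384 wells to reach 80–90% confluence, treated after 24 h with 2.5 µl of serially diluted compound and held 72 h at 37 °C, 5% CO2. Relative viability was taken as percent growth from ATPLite readings, averaged over up to triplicate wells. The values were rescaled so that 1 marks full and 0 marks none.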

RD = test system: RD
Outline: as §1

SW684 = test system: SW684
Outline: as §1

SW872 = test system: SW872
Outline: as §1

HS729 = test system: HS729
Outline: as §1

SW1353 = test system: SW1353
Outline: as §1

KHOS-NP = test system: KHOS-NP
Outline: as §1

G401 = test system: G401
Outline: as §1

HT1080 = test system: HT1080
Outline: as §1

RD-ES = test system: RD-ES
Outline: as §1

SK-LMS-1 = test system: SK-LMS-1
Outline: as §1

KHOS-240S = test system: KHOS-240S
Outline: as §1

COc1cc2nccc(Oc3ccc(NC(=O)C4(C(=O)Nc5ccc(F)cc5)CC4)cc3)c2cc1OC [Cabozantinib]
relative viability (SYO-1; 0.00017 µM): 1 ± 0.048
relative viability (SYO-1; 0.00051 µM): 1 ± 0.052
relative viability (SYO-1; 0.00152 µM): 0.974 ± 0.066
relative viability (SYO-1; 0.00457 µM): 0.91 ± 0.044
relative viability (SYO-1; 0.01372 µM): 0.915 ± 0.039
relative viability (SYO-1; 0.04115 µM): 0.751 ± 0.042
relative viability (SYO-1; 0.1235 µM): 0.708 ± 0.051
relative viability (SYO-1; 0.3704 µM): 0.627 ± 0.034
relative viability (SYO-1; 1.111 µM): 0.451 ± 0.045
relative viability (SYO-1; 3.333 µM): 0.322 ± 0.023
relative viability (SYO-1; 10 µM): 0.129 ± 0.01
relative viability (RD; 0.00017 µM): 1.073 ± 0.0038
relative viability (RD; 0.00051 µM): 1.09 ± 0.025
relative viability (RD; 0.00152 µM): 1.09 ± 0.058
relative viability (RD; 0.00457 µM): 1.12 ± 0.042
relative viability (RD; 0.01372 µM): 1.11 ± 0.06
relative viability (RD; 0.04115 µM): 1.12 ± 0.028
relative viability (RD; 0.1235 µM): 1.13 ± 0.083
relative viability (RD; 0.3704 µM): 1.11 ± 0.061
relative viability (RD; 1.111 µM): 1.13 ± 0.061
relative viability (RD; 3.333 µM): 0.864 ± 0.078
relative viability (RD; 10 µM): 0.501 ± 0.016
relative viability (SW684; 0.00017 µM): 1.17 ± 0.034
relative viability (SW684; 0.00051 µM): 1.19 ± 0.024
relative viability (SW684; 0.00152 µM): 1.2 ± 0.035
relative viability (SW684; 0.00457 µM): 1.2 ± 0.047
relative viability (SW684; 0.01372 µM): 1.21 ± 0.032
relative viability (SW684; 0.04115 µM): 1.121 ± 0.01
relative viability (SW684; 0.1235 µM): 0.945 ± 0.044
relative viability (SW684; 0.3704 µM): 0.848 ± 0.029
relative viability (SW684; 1.111 µM): 0.852 ± 0.045
relative viability (SW684; 3.333 µM): 0.652 ± 0.046
relative viability (SW684; 10 µM): 0.38 ± 0.085
relative viability (SW872; 0.00017 µM): 1.08 ± 0.033
relative viability (SW872; 0.00051 µM): 1.1 ± 0.041
relative viability (SW872; 0.00152 µM): 1.08 ± 0.034
relative viability (SW872; 0.00457 µM): 1.11 ± 0.062
relative viability (SW872; 0.01372 µM): 1.06 ± 0.069
relative viability (SW872; 0.04115 µM): 1.05 ± 0.021
relative viability (SW872; 0.1235 µM): 1.06 ± 0.075
relative viability (SW872; 0.3704 µM): 1.01 ± 0.075
relative viability (SW872; 1.111 µM): 0.931 ± 0.029
relative viability (SW872; 3.333 µM): 0.626 ± 0.023
relative viability (SW872; 10 µM): 0.4 ± 0.035
relative viability (HS729; 0.00017 µM): 1.1 ± 0.023
relative viability (HS729; 0.00051 µM): 0.966 ± 0.056
relative viability (HS729; 0.00152 µM): 0.973 ± 0.062
relative viability (HS729; 0.00457 µM): 0.928 ± 0.049
relative viability (HS729; 0.01372 µM): 0.9662 ± 0.0076
relative viability (HS729; 0.04115 µM): 0.897 ± 0.076
relative viability (HS729; 0.1235 µM): 0.83 ± 0.049
relative viability (HS729; 0.3704 µM): 0.749 ± 0.027
relative viability (HS729; 1.111 µM): 0.64 ± 0.03
relative viability (HS729; 3.333 µM): 0.504 ± 0.025
relative viability (HS729; 10 µM): 0.288 ± 0.037
relative viability (SW1353; 0.00017 µM): 1.05 ± 0.058
relative viability (SW1353; 0.00051 µM): 1.02 ± 0.04
relative viability (SW1353; 0.00152 µM): 1.04 ± 0.029
relative viability (SW1353; 0.00457 µM): 0.987 ± 0.067
relative viability (SW1353; 0.01372 µM): 1.01 ± 0.014
relative viability (SW1353; 0.04115 µM): 1.01 ± 0.025
relative viability (SW1353; 0.1235 µM): 0.904 ± 0.022
relative viability (SW1353; 0.3704 µM): 0.8127 ± 0.0054
relative viability (SW1353; 1.111 µM): 0.783 ± 0.024
relative viability (SW1353; 3.333 µM): 0.54 ± 0.014
relative viability (SW1353; 10 µM): 0.317 ± 0.068
relative viability (KHOS-NP; 0.00017 µM): 1.07 ± 0.027
relative viability (KHOS-NP; 0.00051 µM): 1.09 ± 0.026
relative viability (KHOS-NP; 0.00152 µM): 1.1 ± 0.012
relative viability (KHOS-NP; 0.00457 µM): 1.06 ± 0.022
relative viability (KHOS-NP; 0.01372 µM): 1.09 ± 0.036
relative viability (KHOS-NP; 0.04115 µM): 1.07 ± 0.033
relative viability (KHOS-NP; 0.1235 µM): 1.08 ± 0.014
relative viability (KHOS-NP; 0.3704 µM): 1.07 ± 0.031
relative viability (KHOS-NP; 1.111 µM): 1.04 ± 0.035
relative viability (KHOS-NP; 3.333 µM): 0.924 ± 0.016
relative viability (KHOS-NP; 10 µM): 0.586 ± 0.064
relative viability (G401; 0.00017 µM): 1.08 ± 0.032
relative viability (G401; 0.00051 µM): 1.05 ± 0.035
relative viability (G401; 0.00152 µM): 1.02 ± 0.041
relative viability (G401; 0.00457 µM): 1.06 ± 0.054
relative viability (G401; 0.01372 µM): 1.05 ± 0.034
relative viability (G401; 0.04115 µM): 0.997 ± 0.063
relative viability (G401; 0.1235 µM): 0.969 ± 0.019
relative viability (G401; 0.3704 µM): 0.858 ± 0.03
relative viability (G401; 1.111 µM): 0.804 ± 0.03
relative viability (G401; 3.333 µM): 0.514 ± 0.017
relative viability (G401; 10 µM): 0.215 ± 0.06
relative viability (HT1080; 0.00017 µM): 1.06 ± 0.069
relative viability (HT1080; 0.00051 µM): 1.06 ± 0.03
relative viability (HT1080; 0.00152 µM): 1.07 ± 0.033
relative viability (HT1080; 0.00457 µM): 1.07 ± 0.019
relative viability (HT1080; 0.01372 µM): 1.05 ± 0.051
relative viability (HT1080; 0.04115 µM): 1.04 ± 0.024
relative viability (HT1080; 0.1235 µM): 1.06 ± 0.019
relative viability (HT1080; 0.3704 µM): 1.06 ± 0.032
relative viability (HT1080; 1.111 µM): 1.07 ± 0.016
relative viability (HT1080; 3.333 µM): 0.962 ± 0.014
relative viability (HT1080; 10 µM): 0.482 ± 0.02
relative viability (RD-ES; 0.00017 µM): 0.916 ± 0.062
relative viability (RD-ES; 0.00051 µM): 0.92 ± 0.048
relative viability (RD-ES; 0.00152 µM): 0.953 ± 0.057
relative viability (RD-ES; 0.00457 µM): 0.95 ± 0.042
relative viability (RD-ES; 0.01372 µM): 0.938 ± 0.039
relative viability (RD-ES; 0.04115 µM): 0.949 ± 0.015
relative viability (RD-ES; 0.1235 µM): 0.958 ± 0.018
relative viability (RD-ES; 0.3704 µM): 0.895 ± 0.095
relative viability (RD-ES; 1.111 µM): 0.857 ± 0.042
relative viability (RD-ES; 3.333 µM): 0.616 ± 0.04
relative viability (RD-ES; 10 µM): 0.252 ± 0.022
relative viability (SK-LMS-1; 0.00017 µM): 1.13 ± 0.049
relative viability (SK-LMS-1; 0.00051 µM): 1.13 ± 0.063
relative viability (SK-LMS-1; 0.00152 µM): 1.133 ± 0.0043
relative viability (SK-LMS-1; 0.00457 µM): 1.13 ± 0.028
relative viability (SK-LMS-1; 0.01372 µM): 1.09 ± 0.018
relative viability (SK-LMS-1; 0.04115 µM): 0.982 ± 0.032
relative viability (SK-LMS-1; 0.1235 µM): 0.599 ± 0.0083
relative viability (SK-LMS-1; 0.3704 µM): 0.379 ± 0.0053
relative viability (SK-LMS-1; 1.111 µM): 0.339 ± 0.016
relative viability (SK-LMS-1; 3.333 µM): 0.205 ± 0.011
relative viability (SK-LMS-1; 10 µM): 0.11 ± 0.036
relative viability (KHOS-240S; 0.00017 µM): 1.11 ± 0.081
relative viability (KHOS-240S; 0.00051 µM): 1.08 ± 0.028
relative viability (KHOS-240S; 0.00152 µM): 1.08 ± 0.062
relative viability (KHOS-240S; 0.00457 µM): 1.06 ± 0.041
relative viability (KHOS-240S; 0.01372 µM): 1.06 ± 0.065
relative viability (KHOS-240S; 0.04115 µM): 1.07 ± 0.062
relative viability (KHOS-240S; 0.1235 µM): 1.02 ± 0.045
relative viability (KHOS-240S; 0.3704 µM): 1.04 ± 0.016
relative viability (KHOS-240S; 1.111 µM): 0.974 ± 0.06
relative viability (KHOS-240S; 3.333 µM): 0.6869 ± 0.0062
relative viability (KHOS-240S; 10 µM): 0.425 ± 0.045
